Test results published in ChEMBL document CHEMBL1201862, “PubChem BioAssay data set” (2004).
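How tested: cells in 96-well plates exposed to compound for 48 hours at five concentrations. GI50 marks 50% less growth.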 Active and inactive are the calls of the source. No stated cut-off is given here; in the data, active = GI50 up to about 1.1 µM and inactive = higher.

Experiments:
Experiment in all cases: NCI tumour cell line growth inhibition, 48 h
[1] = system: 786-0
[2] = system: A498
[3] = system: A549
[4] = system: ACHN
[5] = system: CAKI-1
[6] = system: CCRF-CEM
[7] = system: COLO 205
[8] = system: DLD-1
[9] = system: DMS-114
[10] = system: DMS-273
[11] = system: EKVX
[12] = system: HCC 2998
[13] = system: HCT-116
[14] = system: HCT-15
[15] = system: HL-60
[16] = system: HOP-62
[17] = system: HOP-92
[18] = system: K562
[19] = system: KM-20L2
[20] = system: KM12
[21] = system: LOX IMVI
[22] = system: LXFL 529
[23] = system: M14
[24] = system: M19-MEL
[25] = system: MOLT-4
[26] = system: Malme-3M
[27] = system: NCI-H226
[28] = system: NCI-H23
[29] = system: NCI-H460
[30] = system: NCI-H522
[31] = system: OVCAR-3
[32] = system: OVCAR-4
[33] = system: OVCAR-5
[34] = system: OVCAR-8
[35] = system: RPMI-8226
[36] = system: SF-268
[37] = system: SF-539
[38] = system: SK-MEL-28
[39] = system: SK-MEL-2
[40] = system: SK-MEL-5
[41] = system: SN12C
[42] = system: SNB-19
[43] = system: SNB-75
[44] = system: SR
[45] = system: SW-620
[46] = system: TK-10
[47] = system: U-251
[48] = system: UACC-257
[49] = system: UACC-62
[50] = system: UO-31
[51] = system: XF498
[52] = system: HT-29
[53] = system: IGROV-1
[54] = system: SF-295
[55] = system: SK-OV-3
[56] = system: SNB-78

Structure (SMILES): Oc1ccc(C2Oc3cc(O)cc4c3C2c2cc(O)cc3c2C(c2cc(O)cc5c2C4C(c2ccc(O)cc2)O5)C(c2ccc(O)cc2)O3)cc1 (stereo not drawn)
- GI50 [1]: 14.2 µM (inactive)
- GI50 [2]: > 25 µM (inactive)
- GI50 [3]: > 25 µM (inactive)
- GI50 [4]: > 25 µM (inactive)
- GI50 [5]: > 25 µM (inactive)
- GI50 [6]: 5.78 µM (inactive)
- GI50 [7]: > 25 µM (inactive)
- GI50 [8]: > 25 µM (inactive)
- GI50 [9]: 7.11 µM (inactive)
- GI50 [10]: 8.07 µM (inactive)
- GI50 [11]: > 25 µM (inactive)
- GI50 [12]: 8.15 µM (inactive)
- GI50 [13]: 7.48 µM (inactive)
- GI50 [14]: > 25 µM
- GI50 [15]: 0.834 µM (active)
- GI50 [16]: 16.5 µM (inactive)
- GI50 [17]: 3.94 µM (inactive)
- GI50 [18]: 7 µM (inactive)
- GI50 [19]: 13.2 µM (inactive)
- GI50 [20]: 7.4 µM (inactive)
- GI50 [21]: 7.05 µM (inactive)
- GI50 [22]: 5.41 µM (inactive)
- GI50 [23]: > 25 µM (inactive)
- GI50 [24]: 10.4 µM (inactive)
- GI50 [25]: 6.89 µM (inactive)
- GI50 [26]: 5.7 µM (inactive)
- GI50 [27]: 6.19 µM (inactive)
- GI50 [28]: 6.11 µM (inactive)
- GI50 [29]: 12.6 µM (inactive)
- GI50 [30]: 6.55 µM (inactive)
- GI50 [31]: 7 µM (inactive)
- GI50 [32]: 4.4 µM (inactive)
- GI50 [33]: > 25 µM (inactive)
- GI50 [34]: 6.61 µM (inactive)
- GI50 [35]: 7.45 µM (inactive)
- GI50 [36]: 5.12 µM (inactive)
- GI50 [37]: 5.58 µM (inactive)
- GI50 [38]: 5.28 µM (inactive)
- GI50 [39]: 5.51 µM (inactive)
- GI50 [40]: 10.9 µM (inactive)
- GI50 [41]: 8.05 µM (inactive)
- GI50 [42]: 4.78 µM (inactive)
- GI50 [43]: 3.19 µM (inactive)
- GI50 [44]: 6.35 µM (inactive)
- GI50 [45]: 7.73 µM (inactive)
- GI50 [46]: > 25 µM (inactive)
- GI50 [47]: 6.32 µM (inactive)
- GI50 [48]: 10.5 µM (inactive)
- GI50 [49]: > 25 µM (inactive)
- GI50 [50]: 8.24 µM (inactive)
- GI50 [51]: 5.51 µM (inactive)

Structure (SMILES): Cc1ccc(NCCO)cc1
- GI50 [1]: > 100 µM (inactive)
- GI50 [3]: > 100 µM (inactive)
- GI50 [4]: > 100 µM (inactive)
- GI50 [5]: > 100 µM (inactive)
- GI50 [6]: > 100 µM (inactive)
- GI50 [7]: > 100 µM (inactive)
- GI50 [8]: > 100 µM (inactive)
- GI50 [9]: 61.7 µM (inactive)
- GI50 [11]: > 100 µM (inactive)
- GI50 [13]: > 100 µM (inactive)
- GI50 [14]: > 100 µM
- GI50 [15]: > 100 µM (inactive)
- GI50 [16]: > 100 µM (inactive)
- GI50 [17]: 97.1 µM (inactive)
- GI50 [52]: > 100 µM (inactive)
- GI50 [53]: > 100 µM (inactive)
- GI50 [18]: 55 µM (inactive)
- GI50 [19]: > 100 µM (inactive)
- GI50 [20]: > 100 µM (inactive)
- GI50 [21]: > 100 µM (inactive)
- GI50 [22]: > 100 µM (inactive)
- GI50 [23]: > 100 µM (inactive)
- GI50 [25]: 85.1 µM (inactive)
- GI50 [26]: > 100 µM (inactive)
- GI50 [27]: > 100 µM (inactive)
- GI50 [28]: > 100 µM (inactive)
- GI50 [29]: > 100 µM (inactive)
- GI50 [30]: > 100 µM (inactive)
- GI50 [31]: > 100 µM (inactive)
- GI50 [32]: > 100 µM (inactive)
- GI50 [33]: > 100 µM (inactive)
- GI50 [34]: > 100 µM (inactive)
- GI50 [35]: > 100 µM (inactive)
- GI50 [36]: > 100 µM (inactive)
- GI50 [54]: > 100 µM (inactive)
- GI50 [37]: > 100 µM (inactive)
- GI50 [38]: > 100 µM (inactive)
- GI50 [39]: > 100 µM (inactive)
- GI50 [40]: > 100 µM (inactive)
- GI50 [55]: > 100 µM (inactive)
- GI50 [41]: > 100 µM (inactive)
- GI50 [42]: > 100 µM (inactive)
- GI50 [43]: > 100 µM (inactive)
- GI50 [56]: > 100 µM (inactive)
- GI50 [44]: > 100 µM (inactive)
- GI50 [45]: > 100 µM (inactive)
- GI50 [46]: > 100 µM (inactive)
- GI50 [47]: > 100 µM (inactive)
- GI50 [48]: > 100 µM (inactive)
- GI50 [49]: > 100 µM (inactive)
- GI50 [50]: > 100 µM (inactive)
- GI50 [51]: > 100 µM (inactive)
